PubChem BioAssay (NCI)
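How tested: cells in 96-well plates exposed to compound for 48 hours at five concentrations. At the GI50, growth is halved. At the TGI there is no net growth.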

Columns and labels:
Assay in all cases: NCI tumour cell line growth inhibition, 48 h
786-0 renal = system: 786-0 renal
A498 renal = system: A498 renal
A549 NSCLC = system: A549 NSCLC
ACHN renal = system: ACHN renal
BT-549 breast = system: BT-549 breast
CAKI-1 renal = system: CAKI-1 renal
CCRF-CEM leukemia = system: CCRF-CEM leukemia
COLO 205 colon = system: COLO 205 colon
DU-145 prostate = system: DU-145 prostate
EKVX NSCLC = system: EKVX NSCLC
HCC-2998 colon = system: HCC-2998 colon
HCT-116 colon = system: HCT-116 colon
HCT-15 colon = system: HCT-15 colon
HL-60(TB) leukemia = system: HL-60(TB) leukemia
HOP-62 NSCLC = system: HOP-62 NSCLC
HOP-92 NSCLC = system: HOP-92 NSCLC
HS 578T breast = system: HS 578T breast
HT29 colon = system: HT29 colon
IGROV1 ovarian = system: IGROV1 ovarian
KM12 colon = system: KM12 colon
LOX IMVI melanoma = system: LOX IMVI melanoma
M14 melanoma = system: M14 melanoma
MALME-3M melanoma = system: MALME-3M melanoma
MCF7 breast = system: MCF7 breast
MDA-MB-231 breast = system: MDA-MB-231 breast
MDA-MB-435 = system: MDA-MB-435
NCI-H226 lung = system: NCI-H226 lung
NCI-H23 lung = system: NCI-H23 lung
NCI-H460 lung = system: NCI-H460 lung
NCI-H522 lung = system: NCI-H522 lung
NCI/ADR-RES ovarian = system: NCI/ADR-RES ovarian
OVCAR-3 ovarian = system: OVCAR-3 ovarian
OVCAR-4 ovarian = system: OVCAR-4 ovarian
OVCAR-5 ovarian = system: OVCAR-5 ovarian
OVCAR-8 ovarian = system: OVCAR-8 ovarian
PC-3 prostate = system: PC-3 prostate
RXF 393 renal = system: RXF 393 renal
SF-268 CNS = system: SF-268 CNS
SF-295 CNS = system: SF-295 CNS
SF-539 CNS = system: SF-539 CNS
SK-MEL-2 melanoma = system: SK-MEL-2 melanoma
SK-MEL-28 melanoma = system: SK-MEL-28 melanoma
SK-MEL-5 melanoma = system: SK-MEL-5 melanoma
SK-OV-3 ovarian = system: SK-OV-3 ovarian
SN12C renal = system: SN12C renal
SNB-19 CNS = system: SNB-19 CNS
SNB-75 CNS = system: SNB-75 CNS
SR leukemia = system: SR leukemia
T-47D breast = system: T-47D breast
TK-10 renal = system: TK-10 renal
U251 CNS = system: U251 CNS
UACC-257 melanoma = system: UACC-257 melanoma
UACC-62 melanoma = system: UACC-62 melanoma
UO-31 renal = system: UO-31 renal
K-562 leukemia = system: K-562 leukemia
MOLT-4 leukemia = system: MOLT-4 leukemia
RPMI-8226 leukemia = system: RPMI-8226 leukemia
SW-620 colon = system: SW-620 colon

In the case of [O-][n+]1ccccc1Sc1nc(Sc2cccc[n+]2[O-])nc(Sc2cccc[n+]2[O-])n1, the TGI (786-0 renal) is reported as 2.53 µM, the TGI (A498 renal) is reported as 8.37 µM and the TGI (A549 NSCLC) is reported as 13.9 µM. The TGI (ACHN renal) was 4.06 µM, the TGI (BT-549 breast) was 4.96 µM and the TGI (CAKI-1 renal) was 2.11 µM. For the same compound, the TGI (CCRF-CEM leukemia) was > 100 µM, the TGI (COLO 205 colon) was 2.3 µM and the TGI (DU-145 prostate) was 10.2 µM. For the same compound, the TGI (EKVX NSCLC) was 5.81 µM, the TGI (HCC-2998 colon) was 2.89 µM and the TGI (HCT-116 colon) was 2.53 µM. For the same compound, the TGI (HCT-15 colon) was 2.93 µM, the TGI (HL-60(TB) leukemia) was > 100 µM and the TGI (HOP-62 NSCLC) was 9.17 µM. For the same compound, the TGI (HOP-92 NSCLC) was 3.03 µM, the TGI (HS 578T breast) was 10.9 µM and the TGI (HT29 colon) was 2.61 µM. For the same compound, the TGI (IGROV1 ovarian) was 3.03 µM, the TGI (KM12 colon) was 3.88 µM and the TGI (LOX IMVI melanoma) was 4 µM. It also gave a TGI (M14 melanoma) of 3.06 µM, a TGI (MALME-3M melanoma) of 4.06 µM and a TGI (MCF7 breast) of 2.47 µM. It also gave a TGI (MDA-MB-231 breast) of 2.73 µM, a TGI (MDA-MB-435) of 4.15 µM and a TGI (NCI-H226 lung) of 6.78 µM. The TGI (NCI-H23 lung) was 3.87 µM, the TGI (NCI-H460 lung) was 4.22 µM and the TGI (NCI-H522 lung) was 2.23 µM. It also gave a TGI (NCI/ADR-RES ovarian) of 29.1 µM, a TGI (OVCAR-3 ovarian) of 6.49 µM and a TGI (OVCAR-4 ovarian) of 4.74 µM. For the same compound, the TGI (OVCAR-5 ovarian) was 3.61 µM, the TGI (OVCAR-8 ovarian) was 1.99 µM and the TGI (PC-3 prostate) was 2.19 µM. It also gave a TGI (RXF 393 renal) of 2.23 µM, a TGI (SF-268 CNS) of 10.1 µM and a TGI (SF-295 CNS) of 11.1 µM. For the same compound, the TGI (SF-539 CNS) was 4.06 µM, the TGI (SK-MEL-2 melanoma) was 3.71 µM and the TGI (SK-MEL-28 melanoma) was 3.25 µM. For the same compound, the TGI (SK-MEL-5 melanoma) was 3.07 µM, the TGI (SK-OV-3 ovarian) was 18.6 µM and the TGI (SN12C renal) was 3.48 µM. The TGI (SNB-19 CNS) was 26.1 µM, the TGI (SNB-75 CNS) was 18.6 µM and the TGI (SR leukemia) was 2.97 µM. It also gave a TGI (T-47D breast) of 8.85 µM, a TGI (TK-10 renal) of 3.82 µM and a TGI (U251 CNS) of 3.3 µM. It also gave a TGI (UACC-257 melanoma) of 6.23 µM, a TGI (UACC-62 melanoma) of 3.67 µM and a TGI (UO-31 renal) of 3.25 µM.
COc1ccc(/C=C(/C#N)n2nnc3cccc(F)c32)cc1 was tested, and the GI50 (786-0 renal) was 2.42 µM, the TGI (786-0 renal) was > 100 µM and the GI50 (A498 renal) was 1.22 µM. For the same compound, the TGI (A498 renal) was 4.1 µM, the GI50 (A549 NSCLC) was 1.46 µM and the TGI (A549 NSCLC) was > 100 µM. The GI50 (ACHN renal) was 1.31 µM, the TGI (ACHN renal) was > 100 µM and the GI50 (BT-549 breast) was 2.39 µM. The TGI (BT-549 breast) was 52.9 µM, the GI50 (CAKI-1 renal) was 0.733 µM and the TGI (CAKI-1 renal) was 11.8 µM. For the same compound, the GI50 (CCRF-CEM leukemia) was 0.949 µM, the TGI (CCRF-CEM leukemia) was > 100 µM and the GI50 (COLO 205 colon) was 0.811 µM. The TGI (COLO 205 colon) was > 100 µM, the GI50 (DU-145 prostate) was 1.36 µM and the TGI (DU-145 prostate) was 4.67 µM. For the same compound, the GI50 (EKVX NSCLC) was 2.37 µM, the TGI (EKVX NSCLC) was > 100 µM and the GI50 (HCC-2998 colon) was 1.83 µM. The TGI (HCC-2998 colon) was 7.14 µM, the GI50 (HCT-116 colon) was 0.533 µM and the TGI (HCT-116 colon) was 3.02 µM. The GI50 (HCT-15 colon) was 0.401 µM, the TGI (HCT-15 colon) was > 100 µM and the GI50 (HL-60(TB) leukemia) was 0.527 µM. For the same compound, the TGI (HL-60(TB) leukemia) was 16.2 µM, the GI50 (HOP-62 NSCLC) was 3.25 µM and the TGI (HOP-62 NSCLC) was > 100 µM. For the same compound, the GI50 (HOP-92 NSCLC) was 0.546 µM, the TGI (HOP-92 NSCLC) was 3.23 µM and the GI50 (HS 578T breast) was 1.66 µM. The TGI (HS 578T breast) was 6.41 µM, the GI50 (HT29 colon) was 0.41 µM and the TGI (HT29 colon) was > 100 µM. The GI50 (IGROV1 ovarian) was 0.759 µM, the TGI (IGROV1 ovarian) was 16.3 µM and the GI50 (K-562 leukemia) was 0.352 µM. The TGI (K-562 leukemia) was > 100 µM, the GI50 (KM12 colon) was 0.519 µM and the TGI (KM12 colon) was 4.54 µM. The GI50 (LOX IMVI melanoma) was 0.78 µM, the TGI (LOX IMVI melanoma) was > 100 µM and the GI50 (M14 melanoma) was 0.467 µM. The TGI (M14 melanoma) was 3.89 µM, the GI50 (MALME-3M melanoma) was 0.69 µM and the TGI (MALME-3M melanoma) was > 100 µM. The GI50 (MCF7 breast) was 0.524 µM, the TGI (MCF7 breast) was > 100 µM and the GI50 (MDA-MB-231 breast) was 1.37 µM. The TGI (MDA-MB-231 breast) was 3.84 µM, the GI50 (MDA-MB-435) was 0.18 µM and the TGI (MDA-MB-435) was 0.471 µM. For the same compound, the GI50 (MOLT-4 leukemia) was 0.68 µM, the TGI (MOLT-4 leukemia) was > 100 µM and the GI50 (NCI-H226 lung) was 2.87 µM. For the same compound, the TGI (NCI-H226 lung) was 53.8 µM, the GI50 (NCI-H23 lung) was 1.23 µM and the TGI (NCI-H23 lung) was 6.3 µM. The GI50 (NCI-H460 lung) was 0.703 µM, the TGI (NCI-H460 lung) was 4.62 µM and the GI50 (NCI-H522 lung) was 0.301 µM. For the same compound, the TGI (NCI-H522 lung) was > 100 µM, the GI50 (NCI/ADR-RES ovarian) was 0.371 µM and the TGI (NCI/ADR-RES ovarian) was 3.37 µM. The GI50 (OVCAR-3 ovarian) was 0.316 µM, the TGI (OVCAR-3 ovarian) was 0.899 µM and the GI50 (OVCAR-4 ovarian) was 2 µM. The TGI (OVCAR-4 ovarian) was > 100 µM, the GI50 (OVCAR-5 ovarian) was 1.82 µM and the TGI (OVCAR-5 ovarian) was 4.56 µM. The GI50 (OVCAR-8 ovarian) was 1.97 µM, the TGI (OVCAR-8 ovarian) was > 100 µM and the GI50 (PC-3 prostate) was 1.63 µM. The TGI (PC-3 prostate) was > 100 µM, the GI50 (RPMI-8226 leukemia) was 2.18 µM and the TGI (RPMI-8226 leukemia) was > 100 µM. For the same compound, the GI50 (RXF 393 renal) was 1.3 µM, the TGI (RXF 393 renal) was 6.37 µM and the GI50 (SF-268 CNS) was 2.31 µM. For the same compound, the TGI (SF-268 CNS) was > 100 µM, the GI50 (SF-295 CNS) was 2.35 µM and the TGI (SF-295 CNS) was 17.8 µM. It also gave a GI50 (SF-539 CNS) of 1.62 µM, a TGI (SF-539 CNS) of 4.06 µM and a GI50 (SK-MEL-2 melanoma) of 0.653 µM. For the same compound, the TGI (SK-MEL-2 melanoma) was 21.9 µM, the GI50 (SK-MEL-28 melanoma) was 1.92 µM and the TGI (SK-MEL-28 melanoma) was > 100 µM. The GI50 (SK-MEL-5 melanoma) was 0.877 µM, the TGI (SK-MEL-5 melanoma) was 5.46 µM and the GI50 (SN12C renal) was 1.93 µM. For the same compound, the TGI (SN12C renal) was > 100 µM, the GI50 (SNB-19 CNS) was 2.38 µM and the TGI (SNB-19 CNS) was 82.1 µM. The GI50 (SNB-75 CNS) was 0.206 µM, the TGI (SNB-75 CNS) was 0.638 µM and the GI50 (SR leukemia) was 0.48 µM. The TGI (SR leukemia) was > 100 µM, the GI50 (SW-620 colon) was 0.399 µM and the TGI (SW-620 colon) was > 100 µM. For the same compound, the GI50 (T-47D breast) was 0.503 µM, the TGI (T-47D breast) was > 100 µM and the GI50 (TK-10 renal) was 3.18 µM. The TGI (TK-10 renal) was 47.2 µM, the GI50 (U251 CNS) was 1.79 µM and the TGI (U251 CNS) was > 100 µM. For the same compound, the GI50 (UACC-257 melanoma) was 77.8 µM, the TGI (UACC-257 melanoma) was > 100 µM and the GI50 (UACC-62 melanoma) was 0.516 µM. The TGI (UACC-62 melanoma) was 29.9 µM, the GI50 (UO-31 renal) was 1.8 µM and the TGI (UO-31 renal) was 6.87 µM.
